Here are results for twelve substances from US20100119483A1, “PEPTIDE VIRAL ENTRY INHIBITORS” (Schering Corporation, priority 2004, published 2010).

Values joined by “and” are separate entries in the source; they are usually repeats but may differ in a detail not shown here. Equal values may be shown once.

The experiment has as its system HCV pseudoparticles. Put plainly: HCV pseudoparticle (HCVpp) entry assay in Huh7 hepatoma cells, luciferase readout. The format is cell-based, hepatitis C virus. Particulars: for % of control at ~30 uM: percentage of hepatitis C virus cellular entry at 30 μM peptide vs uninhibited control; for HCVpp % inh: truncated peptides tested at 50 uM in 1% DMSO. How it is done: HCV pseudotype particle generation. Single cycle HCV pseudoparticles are composed of a replication-defective HIV genome and HCV envelope proteins. These pseudoparticles were made by transfecting 293T cells with 5 ug of each pNL43E-R-luc (Chen et al., J. Virol. 68(2):654-60 (1994)) and plasmid expressing HCV envelope proteins pCMV/E1-2 with profection transfection kit from Promega (Madison, Wis.). The medium was refreshed 12-24 hours after transfection and supernatant was collected 48 hours after transfection. The supernatant from a transfection of only pNL43E-R-luc was used each time as a control for non specific entry events.
Infection of hepatoma cell lines with HCV pseudotype particles and screen for inhibitory peptides. The hepatoma cells, Huh7, was seeded at 8000 cells in 90 ul medium in 96-well plate. In the case of the inhibitor screen, the inhibitor was incubated with cells for one hour at 37° C. and then 50 ul viral supernatant was added to the cells 24 hours after seeding. The viral stock was pre-tittered and diluted to yield approximately 10,000 to 20,000 RLU. The cells were incubated at 37° C. with 5% CO2 for additional 72 hours and were harvested for luciferase assay. Peptide stocks were prepared in 100% DMSO at 10 mg/ml and were first screened at 100 ug/ml and then a dose responsive curve was generated with 10 points 3-fold titration starting from 100 ug/ml.
The peptide of SEQ ID NO: 77 was first serial diluted by the factor of 3 in 100% DMSO from 100 ug/ml and then transferred to the assay plates at 100-fold dilution. The peptide was first incubated with cells and HCVpp (A) or HIVpp (B), respectively, for 30 minutes at […] in this experiment. Then, the medium containing the peptide was removed from the cells and virus with peptide was added to the cells. Cells were incubated for 72 hours and then were harvested for luciferase assay. Two separate trials were performed.
In addition, the peptide of SEQ ID NO: 77 was mutated at several positions and assayed in the HCV entry assay discussed above. […] The assays were performed essentially as described above.

[1] abbreviates: 0.1 nM of peptide (printed for three rows), two values per peptide and row.
The mark [2] stands for this setting: 0.3 nM of peptide, two values per peptide.
The mark [3] stands for this setting: 1 nM of peptide, two values per peptide.
[4] abbreviates: 3 nM of peptide, two values per peptide.
Setting [5] is: 10 nM of peptide, two values per peptide.
Where [6] appears, read: 30 nM of peptide, two values per peptide.
Where [7] appears, read: 100 nM of peptide, two values per peptide.
Setting [8] is: 300 nM of peptide, two values per peptide.
The mark [9] stands for this setting: 10000 nM of peptide, two values per peptide.
Where [10] appears, read: 30000 nM of peptide, two values per peptide.

Regarding “A-I-K-W-E-Y-V-L-L-L-F-L-A [SEQ ID NO: 97]”, the “% of control at ~30 uM” value is 24%. Besides, under setting [1], the “% control (HCVpp entry), alanine scanning” value (“% control … alanine scanning” below) is 80 % control and 101 % control and 105 % control and 102 % control and 95 % control and 97 % control. Besides, under setting [2], the “% control … alanine scanning” value is 72 % control and 102 % control. Besides, the “% control … alanine scanning” value under setting [3] is 76 % control and 92 % control. The “% control … alanine scanning” value under setting [4] was 72 % control and 92 % control. Moreover, the “% control … alanine scanning” value under setting [5] is 79 % control and 69 % control. The “% control … alanine scanning” value under setting [6] was 55 % control and 80 % control. For the same substance, the “% control … alanine scanning” value under setting [7] is 46 % control and 51 % control. The “% control … alanine scanning” value under setting [8] is 30 % control and 47 % control. The “% control … alanine scanning” value under setting [9] was 19 % control and 37 % control. Moreover, under setting [10], the “% control … alanine scanning” value is 53 % control and 50 % control.
“A-I-K-W-E-Y-V-L-L-L-F-A-L (AIKWEYVLLLFAL; HCV peptide) [SEQ ID NO: 96, Ala-scan]”: the “% of control at ~30 uM” value was 24%. Further, under setting [1], the “% control … alanine scanning” value was 95 % control and 86 % control and 100 % control and 96 % control and 72 % control and 132 % control. Further, the “% control … alanine scanning” value under setting [2] was 91 % control and 98 % control. Also, under setting [3], the “% control … alanine scanning” value was 124 % control and 78 % control. In addition, under setting [4], the “% control … alanine scanning” value was 76 % control and 85 % control. Further, the “% control … alanine scanning” value under setting [5] is 58 % control and 73 % control. Also, the “% control … alanine scanning” value under setting [6] was 63 % control and 67 % control. Further, under setting [7], the “% control … alanine scanning” value was 24 % control and 41 % control. For the same substance, the “% control … alanine scanning” value under setting [8] was 36 % control and 26 % control. Besides, the “% control … alanine scanning” value under setting [9] is 33 % control and 20 % control. Moreover, the “% control … alanine scanning” value under setting [10] is 31 % control.
Consider “A-G-K-W-E-Y-V-L-L-L-F-L-L (AGKWEYVLLLFLL; HCV peptide) [SEQ ID NO: 83, Gly-scan]”, for which the “% of control at ~30 uM” value is recorded as 9%. Moreover, for the setting “0.00003 uM of peptide, two values per peptide and row”, the “% control (HCVpp entry), glycine scanning” value (“% control … glycine scanning” below) is 98 % control and 80 % control and 128 % control and 94 % control. Moreover, where the note is “0.0001 uM of peptide, two values per peptide”, the “% control … glycine scanning” value is 75 % control and 94 % control. Moreover, the “% control … glycine scanning” value (0.0003 uM of peptide, two values per peptide) was 94 % control and 83 % control. Besides, for the setting “0.001 uM of peptide, two values per peptide”, the “% control … glycine scanning” value is 70 % control and 67 % control. For the same substance, the “% control … glycine scanning” value (0.003 uM of peptide, two values per peptide) was 51 % control and 66 % control. Besides, the “% control … glycine scanning” value (0.01 uM of peptide, two values per peptide) was 76 % control and 56 % control. Further, where the note is “0.03 uM of peptide, two values per peptide”, the “% control … glycine scanning” value was 43 % control and 62 % control. For the same substance, for the setting “30 uM of peptide, two values per peptide”, the “% control … glycine scanning” value is 18 % control and 15 % control.
Take “A-I-P-W-E-Y-V-L-L-L-F-L-L (AIPWEYVLLLFLL; HCV peptide) [SEQ ID NO: 117]”: the “% control (HCVpp entry), proline scanning” value (“% control … proline scanning” below) under setting [2] is 66 % control and 117 % control; the “% control … proline scanning” value under setting [3] is 68 % control and 87 % control; the “% control … proline scanning” value under setting [4] was 89 % control and 66 % control; the “% control … proline scanning” value under setting [5] is listed as 75 % control; the “% control … proline scanning” value under setting [6] is 58 % control and 71 % control; the “% control … proline scanning” value under setting [7] is 38 % control and 54 % control. In addition, the “% control … proline scanning” value under setting [8] was 48 % control and 41 % control; the “% control … proline scanning” value under setting [9] was 54 % control and 31 % control.
“A-I-K-W-E-Y-V-K-L-L-F-L-L (AIKWEYVKLLFLL; HCV peptide) [SEQ ID NO: 132]”: the “% control (HCVpp entry), lysine scanning” value by setting is: under setting [1], 73 % control and 89 % control and 95 % control and 92 % control and 117 % control and 96 % control; under setting [2], 100 % control and 71 % control; under setting [3], 67 % control and 79 % control; under setting [4], 78 % control and 75 % control; under setting [5], 54 % control and 56 % control; under setting [6], 71 % control and 89 % control. In addition, the “% control (HCVpp entry), lysine scanning” value is, setting by setting: under setting [7], 59 % control and 62 % control; under setting [8], 46 % control and 44 % control; under setting [9], 49 % control and 50 % control; under setting [10], 42 % control and 41 % control.
Substance “K-W-E-Y-V-L-L-L-F-L-L (KWEYVLLLFLL; HCV peptide) [SEQ ID NO: 108, N-terminal truncation]” showed an HCVpp % inh of 78%.
On the same count and under the same terms, with “A-I-K-W-E-Y-V-L-L-L-F-L-L [SEQ ID NO: 106]” the figure was 92%.
In the case of “A-I-K-W-E-Y-P-L-L-L-F-L-L (AIKWEYPLLLFLL; HCV peptide) [SEQ ID NO: 121]”, the “% control … proline scanning” value under setting [1] is 77 % control and 95 % control and 91 % control and 115 % control and 104 % control and 90 % control; the “% control … proline scanning” value under setting [2] is 68 % control and 84 % control; the “% control … proline scanning” value under setting [3] was 76 % control and 110 % control; the “% control … proline scanning” value under setting [4] is 85 % control and 87 % control; the “% control … proline scanning” value under setting [5] is 75 % control and 66 % control; the “% control … proline scanning” value under setting [6] is 70 % control and 82 % control. Besides, the “% control … proline scanning” value under setting [7] is 44 % control and 63 % control; the “% control … proline scanning” value under setting [8] is 42 % control and 30 % control; the “% control … proline scanning” value under setting [10] was 32 % control and 41 % control.
Consider “A-I-K-W-E-Y-V-L-K-L-F-L-L (AIKWEYVLKLFLL; HCV peptide) [SEQ ID NO: 133]”, for which the “% control (HCVpp entry), lysine scanning” value under setting [1] is 78 % control and 85 % control and 96 % control and 101 % control and 87 % control and 116 % control; the “% control (HCVpp entry), lysine scanning” value under setting [2] was 108 % control and 78 % control; the “% control (HCVpp entry), lysine scanning” value under setting [3] is 96 % control and 82 % control; the “% control (HCVpp entry), lysine scanning” value under setting [4] is 95 % control and 79 % control; the “% control (HCVpp entry), lysine scanning” value under setting [5] is 77 % control and 113 % control; the “% control (HCVpp entry), lysine scanning” value under setting [6] was 80 % control and 68 % control. For the same substance, the “% control (HCVpp entry), lysine scanning” value reads like this: under setting [7], 75 % control and 60 % control; under setting [8], 41 % control and 56 % control; under setting [9], 24 % control and 39 % control.
The substance “S-F-A-I-K-W-E-Y-V-L-L-L-F-L-L [SEQ ID NO: 104]” gave an HCVpp % inh of 91%.
On to “A-I-K-W-E-Y-V-P-L-L-F-L-L (AIKWEYVPLLFLL; HCV peptide) [SEQ ID NO: 122]”, for which the “% control … proline scanning” value was 81 % control and 70 % control and 89 % control and 86 % control and 115 % control and 111 % control under setting [1]; 105 % control and 83 % control under setting [2]; 73 % control and 100 % control under setting [3]; 106 % control and 80 % control under setting [4]; 85 % control and 67 % control under setting [5]; 70 % control and 113 % control under setting [6]. Further, the “% control … proline scanning” value under setting [7] is 75 % control and 59 % control; the “% control … proline scanning” value under setting [8] is 76 % control and 53 % control; the “% control … proline scanning” value under setting [9] was 54 % control and 43 % control.
On to “A-I-K-W-P-Y-V-L-L-L-F-L-L (AIKWPYVLLLFLL; HCV peptide) [SEQ ID NO: 119]”, for which the “% control … proline scanning” value was 93 % control and 76 % control and 87 % control and 85 % control and 102 % control and 126 % control under setting [1]; 78 % control and 77 % control under setting [2]; 72 % control and 68 % control under setting [3]; 94 % control and 62 % control under setting [4]; 54 % control and 48 % control under setting [5]; 40 % control and 46 % control under setting [7]. For the same substance, the “% control … proline scanning” value under setting [8] was 40 % control and 47 % control; the “% control … proline scanning” value under setting [10] is 28 % control and 17 % control.
